The values that follow come from patent publication US20130303509A1, “NAMPT INHIBITORS” (AbbVie Inc., priority 2012, published 2013).

For orientation: IC50 means the concentration that inhibits the measured activity by half.

The assay relates to PC3 cells. The assay can be described thus: NAMPT Cell Proliferation Assay. It is filed as cell-based. Conditions: Homo sapiens, PC-3, 120 h, 5 days incubation, cell viability by Cell Titer Glo. The procedure, abridged:
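Five-day CellTiter-Glo viability readout in PC3 cells grown in RPMI/10% heat-inactivated FBS. Compounds added after overnight attachment as a 10-fold dilution series, […]. Percent inhibition fitted to sigmoidal dose-response to derive IC50.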
For the compound `Cc1ccc(OCC(=O)N2CCC(c3ccc(NC(=O)[C@H]4CCN(c5cccnn5)C4)cc3)CC2)cc1` [Example 636, (3S)-N-(4-{1-[(4-methylphenoxy)acetyl]piperidin-4-yl}phenyl)-1-(pyridazin-3-yl)pyrrolidine-3-carboxamide], the midpoint of inhibition, the IC50, lay at 82.8 nM.
With `O=C(Nc1ccc(C2CCN(C(=O)c3ccccc3F)CC2)cc1)[C@H]1CCN(c2cccnn2)C1` [Example 637, (3S)-N-{4-[1-(2-fluorobenzoyl)piperidin-4-yl]phenyl}-1-(pyridazin-3-yl)pyrrolidine-3-carboxamide] the figure was 1.24 nM; with `O=C(Nc1ccc(C2CCN(C(=O)C3CCOC3)CC2)cc1)[C@H]1CCN(c2cccnn2)C1` (stereo partly drawn) [Example 638, (3S)-1-(pyridazin-3-yl)-N-{4-[1-(tetrahydrofuran-3-ylcarbonyl)piperidin-4-yl]phenyl}pyrrolidine-3-carboxamide], 29.9 nM; with `O=C(Nc1ccc(C2CCN(C(=O)c3cccc4ccccc34)CC2)cc1)[C@H]1CCN(c2cccnn2)C1` [Example 639, (3S)-N-{4-[1-(naphthalen-1-ylcarbonyl)piperidin-4-yl]phenyl}-1-(pyridazin-3-yl)pyrrolidine-3-carboxamide], 8.16 nM.
Turning to `O=C(Nc1ccc(C2CCN(C(=O)Cc3c(Cl)cccc3Cl)CC2)cc1)[C@H]1CCN(c2cccnn2)C1` [Example 640, (3S)-N-(4-{1-[(2,6-dichlorophenyl)acetyl]piperidin-4-yl}phenyl)-1-(pyridazin-3-yl)pyrrolidine-3-carboxamide], half-maximal inhibition (IC50) required 2.92 nM.
Regarding `O=C(Nc1ccc(C2CCN(C(=O)Cc3cccc4ccccc34)CC2)cc1)[C@H]1CCN(c2cccnn2)C1` [Example 641, (3S)-N-{4-[1-(naphthalen-1-ylacetyl)piperidin-4-yl]phenyl}-1-(pyridazin-3-yl)pyrrolidine-3-carboxamide], it took 72.6 nM to reach half-maximal inhibition (IC50).
`O=C(Nc1ccc(C2CCN(C(=O)CCCc3cccs3)CC2)cc1)[C@H]1CCN(c2cccnn2)C1` [Example 642, (3S)-1-(pyridazin-3-yl)-N-(4-{1-[4-(thiophen-2-yl)butanoyl]piperidin-4-yl}phenyl)pyrrolidine-3-carboxamide]: the IC50 came out at 7.26 nM. Against the preceding compound, the IC50 is about 10-fold lower.
`O=C(Nc1ccc(C2CCN(C(=O)CC3CC3)CC2)cc1)[C@H]1CCN(c2cccnn2)C1` [Example 643, (3S)-N-{4-[1-(cyclopropylacetyl)piperidin-4-yl]phenyl}-1-(pyridazin-3-yl)pyrrolidine-3-carboxamide] yielded an IC50 of 8.46 nM.
Take `O=C(Nc1ccc(C2CCN(C(=O)CC3CCCC3)CC2)cc1)[C@H]1CCN(c2cccnn2)C1` [Example 644, (3S)-N-{4-[1-(cyclopentylacetyl)piperidin-4-yl]phenyl}-1-(pyridazin-3-yl)pyrrolidine-3-carboxamide]: half-maximal inhibition (IC50) required 8.23 nM.
Take `O=C(Nc1ccc(C2CCN(C(=O)c3cc(F)ccc3F)CC2)cc1)[C@H]1CCN(c2cccnn2)C1` [Example 645, (3S)-N-{4-[1-(2,5-difluorobenzoyl)piperidin-4-yl]phenyl}-1-(pyridazin-3-yl)pyrrolidine-3-carboxamide]: inhibition was half-maximal at 3.3 nM (IC50).
With `O=C(Nc1ccc(C2CCN(C(=O)Cc3ccc4ccccc4c3)CC2)cc1)[C@H]1CCN(c2cccnn2)C1` [Example 646, (3S)-N-{4-[1-(naphthalen-2-ylacetyl)piperidin-4-yl]phenyl}-1-(pyridazin-3-yl)pyrrolidine-3-carboxamide] the figure was 58.7 nM; with `O=C(Nc1ccc(C2CCN(C(=O)CCS(=O)(=O)c3ccccc3)CC2)cc1)[C@H]1CCN(c2cccnn2)C1` [Example 647, (3S)-N-(4-{1-[3-(phenylsulfonyl)propanoyl]piperidin-4-yl}phenyl)-1-(pyridazin-3-yl)pyrrolidine-3-carboxamide], 5.73 nM; with `O=C(Nc1ccc(C2CCN(C(=O)Cc3cccc(C(F)(F)F)c3)CC2)cc1)[C@H]1CCN(c2cccnn2)C1` [Example 648, (3S)-1-(pyridazin-3-yl)-N-[4-(1-{[3-(trifluoromethyl)phenyl]acetyl}piperidin-4-yl)phenyl]pyrrolidine-3-carboxamide], 26.8 nM.
Turning to `O=C(Nc1ccc(C2CCN(C(=O)c3ccco3)CC2)cc1)[C@H]1CCN(c2cccnn2)C1` [Example 649, (3S)-N-{4-[1-(furan-2-ylcarbonyl)piperidin-4-yl]phenyl}-1-(pyridazin-3-yl)pyrrolidine-3-carboxamide], inhibition was half-maximal at 1.11 nM (IC50). This IC50 is about 24-fold lower than that of the compound before.
Compound `O=C(NCC(=O)N1CCC(c2ccc(NC(=O)[C@H]3CCN(c4cccnn4)C3)cc2)CC1)c1ccccc1` [Example 650, (3S)-N-{4-[1-(N-benzoylglycyl)piperidin-4-yl]phenyl}-1-(pyridazin-3-yl)pyrrolidine-3-carboxamide] yielded an IC50 of 86.9 nM.
In the case of `O=C(Nc1ccc(C2CCN(C(=O)Cc3ccc(Cl)cc3Cl)CC2)cc1)[C@H]1CCN(c2cccnn2)C1` [Example 651, (3S)-N-(4-{1-[(2,4-dichlorophenyl)acetyl]piperidin-4-yl}phenyl)-1-(pyridazin-3-yl)pyrrolidine-3-carboxamide] it was 27.6 nM; in that of `Cc1ccccc1C(=O)N1CCC(c2ccc(NC(=O)[C@H]3CCN(c4cccnn4)C3)cc2)CC1` [Example 652, (3S)-N-{4-[1-(2-methylbenzoyl)piperidin-4-yl]phenyl}-1-(pyridazin-3-yl)pyrrolidine-3-carboxamide], 6.14 nM.
Compound `O=C(Nc1ccc(C2CCN(C(=O)CCC(F)(F)F)CC2)cc1)[C@H]1CCN(c2cccnn2)C1` [Example 653, (3S)-1-(pyridazin-3-yl)-N-{4-[1-(4,4,4-trifluorobutanoyl)piperidin-4-yl]phenyl}pyrrolidine-3-carboxamide] registered an IC50 of 9.72 nM. Against the preceding compound, the IC50 is about 1.6-fold higher.
`CC1(C(=O)N2CCC(c3ccc(NC(=O)[C@H]4CCN(c5cccnn5)C4)cc3)CC2)CCCCC1` [Example 654, (3S)-N-(4-{1-[(1-methylcyclohexyl)carbonyl]piperidin-4-yl}phenyl)-1-(pyridazin-3-yl)pyrrolidine-3-carboxamide]: the IC50 worked out at 2.76 nM.
In the case of `O=C(Nc1ccc(C2CCN(C(=O)c3ccsc3)CC2)cc1)[C@H]1CCN(c2cccnn2)C1` [Example 655, (3S)-1-(pyridazin-3-yl)-N-{4-[1-(thiophen-3-ylcarbonyl)piperidin-4-yl]phenyl}pyrrolidine-3-carboxamide], half-maximal inhibition (IC50) required 0.475 nM.
For `Cc1ccc(C(=O)N2CCC(c3ccc(NC(=O)[C@H]4CCN(c5cccnn5)C4)cc3)CC2)cn1` [Example 656, (3S)-N-(4-{1-[(6-methylpyridin-3-yl)carbonyl]piperidin-4-yl}phenyl)-1-(pyridazin-3-yl)pyrrolidine-3-carboxamide], the IC50 worked out at 61 nM.
With `O=C(Nc1ccc(C2CCN(C(=O)Cc3cccc(Cl)c3)CC2)cc1)[C@H]1CCN(c2cccnn2)C1` [Example 657, (3S)-N-(4-{1-[(3-chlorophenyl)acetyl]piperidin-4-yl}phenyl)-1-(pyridazin-3-yl)pyrrolidine-3-carboxamide] the figure was 8.44 nM; with `CCC(=O)N1CCC(c2ccc(NC(=O)[C@H]3CCN(c4cccnn4)C3)cc2)CC1` [Example 658, (3S)-N-[4-(1-propanoylpiperidin-4-yl)phenyl]-1-(pyridazin-3-yl)pyrrolidine-3-carboxamide], 14.4 nM; with `O=C(Nc1ccc(C2CCN(C(=O)c3cc(F)cc(F)c3)CC2)cc1)[C@H]1CCN(c2cccnn2)C1` [Example 659, (3S)-N-{4-[1-(3,5-difluorobenzoyl)piperidin-4-yl]phenyl}-1-(pyridazin-3-yl)pyrrolidine-3-carboxamide], 11.2 nM.
As for `O=C(Nc1ccc(C2CCN(C(=O)C3CCCC3)CC2)cc1)[C@H]1CCN(c2cccnn2)C1` [Example 660, (3S)-N-{4-[1-(cyclopentylcarbonyl)piperidin-4-yl]phenyl}-1-(pyridazin-3-yl)pyrrolidine-3-carboxamide], the IC50 was determined as 5.23 nM.
The compound `O=C(Nc1ccc(C2CCN(C(=O)C3CCCO3)CC2)cc1)[C@H]1CCN(c2cccnn2)C1` (stereo partly drawn) [Example 661, (3S)-1-(pyridazin-3-yl)-N-{4-[1-(tetrahydrofuran-2-ylcarbonyl)piperidin-4-yl]phenyl}pyrrolidine-3-carboxamide] yielded an IC50 of 21.6 nM.
With `O=C(Nc1ccc(C2CCN(C(=O)C3CC3)CC2)cc1)[C@H]1CCN(c2cccnn2)C1` [Example 662, (3S)-N-{4-[1-(cyclopropylcarbonyl)piperidin-4-yl]phenyl}-1-(pyridazin-3-yl)pyrrolidine-3-carboxamide], the IC50 amounted to 15.9 nM.
For `O=C(Nc1ccc(C2CCN(C(=O)c3ccc(Cl)cc3)CC2)cc1)[C@H]1CCN(c2cccnn2)C1` [Example 663, (3S)-N-{4-[1-(4-chlorobenzoyl)piperidin-4-yl]phenyl}-1-(pyridazin-3-yl)pyrrolidine-3-carboxamide], the IC50 came out at 31.6 nM.
In the case of `CC(C)Cn1cc(-c2cc(C(=O)N[C@H]3CCN(c4cccnn4)C3)cs2)cn1` [Example 664, 5-[1-(2-methylpropyl)-1H-pyrazol-4-yl]-N-[(3S)-1-(pyridazin-3-yl)pyrrolidin-3-yl]thiophene-3-carboxamide] it was 1150 nM.
Compound `Cc1cc(N2CC(C(=O)Nc3ccc(C4CCN(C(=O)c5ccccc5)CC4)cc3)C2)cnc1F` [Example 665, N-[4-(1-benzoylpiperidin-4-yl)phenyl]-1-(6-fluoro-5-methylpyridin-3-yl)azetidine-3-carboxamide] returned an IC50 of 7620 nM.
As for `O=C(Nc1ccc(C2CCN(C(=O)c3ccccc3)CC2)cc1)C1CN(c2cncc(F)c2)C1` [Example 666, N-[4-(1-benzoylpiperidin-4-yl)phenyl]-1-(5-fluoropyridin-3-yl)azetidine-3-carboxamide], half-maximal inhibition (IC50) was put at 8.06 nM.
`Cc1ccc(N2CC(C(=O)Nc3ccc(C4CCN(C(=O)c5ccccc5)CC4)cc3)C2)nn1` [Example 667, N-[4-(1-benzoylpiperidin-4-yl)phenyl]-1-(6-methylpyridazin-3-yl)azetidine-3-carboxamide] came in with an IC50 of 12.5 nM. Compared with the last compound, the IC50 is about 1.6-fold higher.
